Earlier results, collected in patent US20020127259A1, “Rumen by-pass delivery system” (priority 1998, published 2002).

Conditions: given by Seghers in 1990

Substance	relative rate of phospholipid hydration [%]
phosphatidylethanolamine [P-ethanolamine]	16
phosphatidic acid	8.5
Phosphatidylcholine	100
phosphatidylinositol	44
